The target in assay [1] is benzodiazepine site of the GABA-A receptor. Description: Benzodiazepine Receptor Binding Assay (inhibition of 3H-flunitrazepam binding). The following applies: read-out: GABAA Receptor Binding IC50.
In assay [2] the test system is metrazol-induced convulsions. Kind of assay: Suppression of Metrazol-Induced Convulsions in Adult Male Mice. The assay is classed as in vivo. The following applies: Mus musculus, po, mouse.
Assay [3] deals with Anxiety in the Adult Male Rat. Description: Suppression of Anxiety in the Adult Male Rat (rat conflict test). The assay is classed as in vivo, rats. The following applies: Rattus norvegicus, rat. The method in brief: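 Male rats, 48 h water- and 24 h food-deprived, trained with 200 unpunished licks, tested at expected peak drug activity. Every 20th lick punished by 0.2-s shock over a 3-min session; increase in median shocks versus concurrent vehicle assessed by one-tailed Mann-Whitney test (p<0.05), validated with a positive-control anxiolytic.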

Assay [4] concerns metrazol-induced convulsions. Description: Suppression of Metrazol-Induced Convulsions in Adult Male Mice. The assay is classed as in vivo. The following applies: Mus musculus, ip, mouse.
Setting [5] is: po, po, read-out: Rat Conflict (MED, mg/kg) po.
Setting [6] is: ip, ip, read-out: Rat Conflict (MED, mg/kg) ip.

Where two headings read alike, the source gives them in different places.

In the case of `COCCN1C2=C(C(=O)Nc3ccc(Cl)cc3)C(=O)CCN2c2ccccc21` [Compound 156], the IC50 in assay [1] stood at 16 nM. Moreover, the values for the 50% effective dose (ED50) in assay [2] and in assay [4] were ~2 mg/kg and < 1 mg/kg, respectively. For the same molecule, the minimal effective dose in assay [3] (setting [5]) was found to be 1 mg/kg.
For `CCOCN1C2=C(C(=O)Nc3ccccc3F)C(=O)CCN2c2ccc(Cl)cc21` [Compound 157], in that order: 0.48 nM, ~2 mg/kg, < 1 mg/kg and > 10 mg/kg.
On to `COCN1C2=C(C(=O)Nc3ccccc3F)C(=O)CCN2c2ccc(F)cc21` [Compound 158], for which the half-maximal inhibitory concentration (IC50) in assay [1] amounted to 0.15 nM. Moreover, the median effective dose (ED50) in assay [2] was found to be 0.1 mg/kg; in assay [4] it was 0.01 mg/kg. For the same molecule, the minimal effective dose in assay [3] (setting [6]) was < 10 mg/kg; in assay [3] (setting [5]), 3 mg/kg.
For the molecule `COCCOCN1C2=C(C(=O)Nc3ccccc3F)C(=O)CCN2c2ccc(F)cc21` [Compound 159], the 50% inhibitory concentration (IC50) in assay [1] stood at 0.8 nM. The figures for the 50% effective dose (ED50) in assay [2] and in assay [4] were 0.1 mg/kg and 0.003 mg/kg, respectively. In addition, the results for the minimal effective dose in assay [3] (setting [6]) and in assay [3] (setting [5]) were < 10 mg/kg and 3 mg/kg, respectively.
The corresponding values for `COCCN1C2=C(C(=O)Nc3ccccc3F)C(=O)CCN2c2ccc(F)cc21` [Compound 163] are 0.61 nM, 0.2 mg/kg, 0.01 mg/kg, < 10 mg/kg and 0.1 mg/kg.
The corresponding values for `CC1(C)OCC(CN2C3=C(C(=O)Nc4ccccc4F)C(=O)CCN3c3ccc(F)cc32)O1` (stereo not shown) [Compound 164] are 2.75 nM, 1 mg/kg, 0.1 mg/kg, < 10 mg/kg and 10 mg/kg.
Consider `O=C1CCN2C(=C1C(=O)Nc1cccnc1)N(CCOCc1ccccc1)c1cc(F)ccc12` [Compound 165], for which the IC50 in assay [1] came to 39.2 nM. Further, the ED50 is > 30 mg/kg in assay [2] and 3 mg/kg in assay [4]. Moreover, in assay [3] (setting [6]), the minimal effective dose is > 7 mg/kg.
As for `O=C1CCN2C(=C1C(=O)Nc1ccccc1F)N(COCc1ccccc1)c1cc(F)ccc12` [Compound 167], the IC50 in assay [1] was determined as 0.26 nM. Besides, the results for the ED50 in assay [2] and in assay [4] were < 30 mg/kg and < 1 mg/kg, respectively. The minimal effective dose in assay [3] (setting [6]) and in assay [3] (setting [5]) was > 10 mg/kg each time.
In the case of `O=C1CCN2C(=C1C(=O)Nc1ccccc1F)N(CCO)c1cc(F)ccc12` [Compound 168, 7-Fluoro-1,2-dihydro-5-(2-hydroxyethyl)-3-oxo-N-(2-fluorophenyl)pyrido[1,2-a]benzimidazole-4-carboxamide], the IC50 in assay [1] was found to be 1.17 nM. Besides, the values for the median effective dose (ED50) in assay [2] and in assay [4] were < 30 mg/kg and < 1 mg/kg, respectively. Moreover, the results for the minimal effective dose in assay [3] (setting [6]) and in assay [3] (setting [5]) were 10 mg/kg and > 10 mg/kg, respectively.
Regarding `O=C1CCN2C(=C1C(=O)Nc1ccccc1F)N(CCCO)c1cc(F)ccc12` [Compound 169], the half-inhibitory concentration (IC50) in assay [1] was 1.08 nM. For the same molecule, the results for the median effective dose (ED50) in assay [2] and in assay [4] were 0.5 mg/kg and 0.1 mg/kg, respectively. The minimal effective dose in assay [3] (setting [6]) and in assay [3] (setting [5]) was 10 mg/kg each time.
Take `O=C1CCN2C(=C1C(=O)Nc1ccccc1F)N(CCCOCc1ccccc1)c1cc(F)ccc12` [Compound 170]: in assay [1], the IC50 is 0.21 nM. Also, the median effective dose (ED50) in assay [2] was < 30 mg/kg; in assay [4], < 1 mg/kg. Also, the minimal effective dose in assay [3] (setting [6]) was < 10 mg/kg; in assay [3] (setting [5]), > 10 mg/kg.
For `O=C1CCN2C(=C1C(=O)Nc1ccccc1F)N(CCOCc1ccccc1)c1cc(F)ccc12` [Compound 171, 7-Fluoro-1,2-dihydro-5-[2-(benzyloxy)ethyl]-3-oxo-N-(2-fluorophenyl)pyrido[1,2-a]benzimidazole-4-carboxamide], in that order: 1.5 nM, 1 mg/kg, 0.1 mg/kg, 10 mg/kg and 10 mg/kg.
As to `CCOCN1C2=C(C(=O)Nc3ccccc3F)C(=O)CCN2c2ccc(F)cc21` [Compound 172], the half-maximal inhibitory concentration (IC50) in assay [1] is 0.14 nM. The figures for the ED50 in assay [2] and in assay [4] were 0.1 mg/kg and 0.01 mg/kg, respectively. For the same molecule, the minimal effective dose was ≤ 10 mg/kg in assay [3] (setting [6]) and 0.3 mg/kg in assay [3] (setting [5]).
Turning to `CCOCN1C2=C(C(=O)Nc3c(F)cccc3F)C(=O)CCN2c2ccc(F)cc21` [Compound 173], the half-inhibitory concentration (IC50) in assay [1] turned out to be 0.65 nM. Moreover, the results for the ED50 in assay [2] and in assay [4] were 3 mg/kg and 1 mg/kg, respectively. The minimal effective dose in assay [3] (setting [6]) and in assay [3] (setting [5]) was > 10 mg/kg each time.
Regarding `O=C1CCN2C(=C1C(=O)Nc1ccccc1F)N(CC1CCOC1)c1cc(F)ccc12` (stereo not shown) [Compound 174], the 50% inhibitory concentration (IC50) in assay [1] worked out at 2.28 nM. Moreover, the ED50 was < 3 mg/kg in assay [2] and < 1 mg/kg in assay [4]. In assay [3] (setting [5]), the minimal effective dose turned out to be 3 mg/kg.
Consider `O=C1CCN2C(=C1C(=O)Nc1ccccc1F)N(CC1CCCO1)c1cc(F)ccc12` (stereo not shown) [Compound 175], for which, in assay [1], the IC50 was 1.5 nM. For the same molecule, the median effective dose (ED50) in assay [2] is 2 mg/kg; in assay [4], < 1 mg/kg. Moreover, in assay [3] (setting [5]), the minimal effective dose was > 10 mg/kg.
On to `CC(C)(C)OC(=O)CN1C2=C(C(=O)Nc3ccccc3F)C(=O)CCN2c2ccc(F)cc21` [Compound 176], for which, in assay [1], the IC50 is 56.2 nM. The ED50 in assay [2] was > 30 mg/kg; in assay [4], > 1 mg/kg. The minimal effective dose in assay [3] (setting [5]) was > 10 mg/kg.
Take `O=C(O)CN1C2=C(C(=O)Nc3ccccc3F)C(=O)CCN2c2ccc(F)cc21` [Compound 177]: the IC50 in assay [1] amounted to 54.8 nM. In addition, the ED50 is > 30 mg/kg in assay [2] and > 1 mg/kg in assay [4]. For the same molecule, the minimal effective dose in assay [3] (setting [5]) was > 10 mg/kg.
Consider `O=C(Nc1c(F)cccc1F)OCCN1C2=C(C(=O)Nc3c(F)cccc3F)C(=O)CCN2c2ccc(F)cc21` [Compound 179], for which the concentration for half-maximal inhibition (IC50) in assay [1] was 7.65 nM. Moreover, the 50% effective dose (ED50) in assay [2] is > 30 mg/kg; in assay [4], 10 mg/kg. Moreover, in assay [3] (setting [6]), the minimal effective dose was > 10 mg/kg.
Consider `CC1(CN2C3=C(C(=O)Nc4ccccc4F)C(=O)CCN3c3ccc(F)cc32)COC1` [Compound 180], for which the half-inhibitory concentration (IC50) in assay [1] came out at 18 nM. Besides, the 50% effective dose (ED50) is > 30 mg/kg in assay [2] and 1 mg/kg in assay [4]. Further, the minimal effective dose in assay [3] (setting [5]) is > 10 mg/kg.

One may read the IC50 as the concentration that gives 50% inhibition. A word on the ED50: it is the dose at which the effect has come halfway, by size or by number of responders. A lower ED50 goes with an effect at a small dose.

(Values after patent EP1420018A1, “Pyrido[1,2-a]benzimidazole derivatives useful in treating central nervous system disorders” (Ortho-McNeil Pharmaceutical, Inc., priority 1996, dated 1998).)
